The conditions of the series: 100 kPa, Liquid, Vibrating tube method.

Each structure is given as a SMILES string. Numbers after ± are expanded uncertainties.

As for `CCC1CCC(=O)O1` (stereo not given) [2(3H)-furanone, 5-ethyldihydro-], the mass density (in general, the mass of a sample divided by its volume) is 1029.16 ± 0.54 kg/m3 (288.15 K); 1024.74 ± 0.54 kg/m3 (293.15 K); 1020.33 ± 0.53 kg/m3 (298.15 K); 1015.91 ± 0.53 kg/m3 (303.15 K); 1011.49 ± 0.53 kg/m3 (308.15 K); 1007.07 ± 0.53 kg/m3 (313.15 K). Besides, the mass density reads like this: (318.15 K) 1002.65 ± 0.53 kg/m3; (323.15 K) 998.229 ± 0.53 kg/m3.

With `CC1CCCC(=O)O1` (stereo not given) [2H-pyran-2-one, tetrahydro-6-methyl-], the mass density was 1053.81 ± 0.51 kg/m3 (288.15 K); 1049.47 ± 0.51 kg/m3 (293.15 K); 1045.14 ± 0.51 kg/m3 (298.15 K); 1040.81 ± 0.51 kg/m3 (303.15 K); 1036.48 ± 0.51 kg/m3 (308.15 K); 1032.15 ± 0.51 kg/m3 (313.15 K). Besides, the mass density was 1027.82 ± 0.51 kg/m3 (318.15 K) and 1023.51 ± 0.51 kg/m3 (323.15 K).

In the case of `CC1=CCC(=O)O1` [5-methylfuran-2(3H)-one], the mass density by setting is: (288.15 K) 1099.32 ± 0.7 kg/m3; (293.15 K) 1093.94 ± 0.7 kg/m3; (298.15 K) 1088.55 ± 0.69 kg/m3; (303.15 K) 1083.16 ± 0.69 kg/m3; (308.15 K) 1077.77 ± 0.69 kg/m3; (313.15 K) 1072.38 ± 0.68 kg/m3. In addition, the mass density runs as follows: (318.15 K) 1066.98 ± 0.68 kg/m3; (323.15 K) 1061.58 ± 0.67 kg/m3.

As to `O=C1CCCO1` [γ-butyrolactone], the mass density runs as follows: (288.15 K) 1134.26 ± 0.51 kg/m3; (293.15 K) 1129.35 ± 0.51 kg/m3; (298.15 K) 1124.44 ± 0.51 kg/m3; (303.15 K) 1119.53 ± 0.51 kg/m3; (308.15 K) 1114.61 ± 0.51 kg/m3; (313.15 K) 1109.69 ± 0.51 kg/m3. Further, the mass density is recorded as 1104.77 ± 0.51 kg/m3 (318.15 K) and 1099.86 ± 0.51 kg/m3 (323.15 K).

On to `CC1CCC(=O)O1` (stereo not given) [γ-valerolactone], for which the mass density was 1058.51 ± 0.51 kg/m3 (288.15 K); 1053.81 ± 0.51 kg/m3 (293.15 K); 1049.1 ± 0.51 kg/m3 (298.15 K); 1044.4 ± 0.51 kg/m3 (303.15 K); 1039.69 ± 0.51 kg/m3 (308.15 K); 1034.98 ± 0.51 kg/m3 (313.15 K). The mass density runs as follows: (318.15 K) 1030.27 ± 0.51 kg/m3; (323.15 K) 1025.56 ± 0.51 kg/m3.
